We go through five compounds from patent US8680148B2, “Metallo-desferrioxamine complexes and their use in the treatment of bacterial infections” (priority 2006, dated 2014).

For series [1] the following is noted: ferric iron; cited from earlier work.
The conditions of series [2]: divalent ions; cited from earlier work.
For series [3] the following is noted: trivalent aluminium ions; cited from earlier work.
For series [4], the system named is Pseudomonas aeruginosa biofilm. Description: Static biofilm formation in microtiter dish wells (crystal violet binding). Type of series: cell-based. Particulars: 18 h. Here is the method:
(§1) Bacterial strains and culture conditions. Pseudomonas aeruginosa PAO1 or PAO1 derivatives were used for all experiments except where noted. For flow cell biofilm experiments, strains containing the GFP expression vector pMRP9-1 were used. Both flow cell and disc reactor biofilms were grown in 1% Tryptic Soy Broth (TSB) (Becton Dickinson, Sparks, Md.) as were planktonic cultures. All cultures were incubated at 37° C. unless otherwise indicated. For the static biofilm formation assay we used M63 minimal medium supplemented with glucose (0.2%), arginine (0.4%) and MgSO4 (1 mM).
Pseudomonas aeruginosa biofilms were studied in three different ways. To evaluate gallium-desferrioxamine as a biofilm-blocking agent, the biofilm formation under static growth conditions was measured in microtiter dish wells. Biofilms were grown under static conditions in 96-well microtiter dishes for 18 h at 37° C. in M63 medium with or without added agents as indicated. Attached biomass was stained with crystal violet and the degree of crystal violet staining was measured.
FIG. 2 illustrates the biofilm growth of Pseudomonas aeruginosa cells in polyvinylchloride microtiter dish wells after treatment for 18 hours with desferrioxamine, Ga, gentamicin, or desferrioxamine-Ga. The concentrations used for each compound were 1 μM for DFO, Ga and DFO-Ga, and 0.1 μg/mL for Gm. Attached biofilm biomass was determined by measuring crystal violet binding.

The subject of series [5] is Pseudomonas aeruginosa. Description: Minimal inhibitory concentration on planktonic Pseudomonas aeruginosa, 96-well plates. The class given is cell-based. Particulars: low iron medium.
Source text: The effect of gallium-desferrioxamine on planktonic Pseudomonas aeruginosa was first examined in a low iron medium. […] When in the stationary phase, Pseudomonas aeruginosa is not effectively killed by antibiotics.
as §1
The minimal inhibitory concentrations (MICs) of various agents were determined by using 96-well plates. Each well contained 100 μl of 1% TSB plus test compound. The inoculum was 5×10^5 Pseudomonas aeruginosa cells per well. To test the effect of agents on survival of stationary phase cells, cultures inoculated with 10^5 cells per ml and incubated for 18 h at 37° C. with aeration were used. The 18-h cultures were centrifuged. The pelleted cells were washed twice and suspended in a volume of fresh medium equal to the original culture volume. […] Viability was determined by plating dilutions on LB agar.

The test system of series [6] is Pseudomonas aeruginosa biofilm. Description: Flow cell biofilms, confocal microscopy (GFP, propidium iodide). Type of series: cell-based. Particulars: for killing of cells in six-day old biofilm (propidium iodide staining): 24 h. The protocol:
as §1
The development of biofilms under a continuous flow of medium was followed in microscope observation chambers. To visualize biofilms grown under a continuous flow of medium, flow cells and confocal microscopy with an incubation temperature of 25° C. were used. An agent was added to the medium at the beginning of an experiment to determine whether the agent prevented biofilm formation. To determine the affect of an agent on mature biofilms, the biofilm was allowed to grow for six days prior to addition of the test compound. To discriminate live and dead cells, propidium iodide (PI, 30 μM, Sigma Chemical Co., St. Louis, Mo.) was used.
FIG. 3 compares 3D-reconstructed confocal microscope images of six-day old biofilms of Pseudomonas aeruginosa cells expressing GFP treated for 24 hours with gentamicin (0.1 μg/mL), desferrioxamine (1 μM), gallium (1 μM), and gallium-desferrioxamine (1 μM).
FIGS. 4-8 compare the survival of P. aeruginosa in a six-day old biofilms stained with propidium iodide under with different treatment.

The subject of series [7] is stationary phase Pseudomonas aeruginosa cells. In words: Survival of stationary phase Pseudomonas aeruginosa cells (plating on LB agar). Type of series: cell-based. Particulars: 24 h. The protocol:
The minimal inhibitory concentrations (MICs) of various agents were determined by using 96-well plates. Each well contained 100 μl of 1% TSB plus test compound. The inoculum was 5×10^5 Pseudomonas aeruginosa cells per well. To test the effect of agents on survival of stationary phase cells, cultures inoculated with 10^5 cells per ml and incubated for 18 h at 37° C. with aeration were used. The 18-h cultures were centrifuged. The pelleted cells were washed twice and suspended in a volume of fresh medium equal to the original culture volume. The cells were incubated at 37° C. for an additional 2 h with shaking and then exposed to the test compounds at the indicated concentrations for 24 h. Viability was determined by plating dilutions on LB agar. FIG. 1 illustrates the survival of stationary phase Pseudomonas aeruginosa cells treated for 24 hours with desferrioxamine (DFO), gentamicin (Gm), gallium (Ga), gallium-desferrioxamine (DFO-Ga), DFO and Gm, Ga and Gm, and DFO-Ga and Gm. The concentrations used for each compound were 0.1 mM (shaded) or 1 mM (dark) for DFO, Ga or DFO-Ga and […] for Gm. […] Because gallium-desferrioxamine and gentamicin exert their antimicrobial effects via different mechanisms, the two agents were combined and the combined treatment results in a six-log reduction in viable cells.

Series [8] relates to P. aeruginosa clinical isolates biofilms. Description: Spinning disc reactor biofilms of 15 clinical isolates. The class given is cell-based, Pseudomonas aeruginosa. The conditions noted are these: 24 h. Here is the method: To verify that the sensitivities observed with laboratory strain of P. aeruginosa (PAO1) would hold with other clinical isolates of the bacterium, 15 clinical isolates of the same bacterium obtained from CF, eye and wound infected patients were screened. The group of isolates tested included mucoid strains, and strains with a variety of drug resistance profiles. The spinning-disc biofilm reactor system was utilized. In this system biofilms are grown under a flow of medium and at high shear forces. After 24 h in a flow of medium the polycarbonate chips with attached biofilm bacteria were removed from the spinning disc and washed 3 times in PBS. All incubations for spinning disc experiments were at 37° C. These biofilms were then exposed to Gm (50 μg/ml), DFO-Ga (1 mM) or a combination of gallium-desferrioxamine […] in water for 24 h. To estimate the number of remaining attached biofilm cells, we placed the discs in 1 ml PBS and dispersed the cells by using a tissue homogenizer (Brinkman Homogenizer, Westbury, N.Y.). Viable cell numbers were determined by plating on LB agar. […]

Series [9] has as its system Pseudomonas aeruginosa biofilm. Description: Spinning disc reactor biofilms, viable cell counts. Type of series: cell-based. The conditions noted are these: 24 h. The protocol: A spinning disc reactor as a third method was used to study biofilms. The biofilms grown under different conditions were tested and the activity of gallium-desferrioxamine against biofilms grown in a spinning disc reactor under continuous flow with high shear was examined. In this system biofilms are grown under a flow of medium and at high shear forces. After 24 h in a flow of medium, the polycarbonate chips with attached biofilm bacteria were removed from the spinning disc and washed 3 times in PBS. All incubations for spinning disc experiments were at 37° C. These biofilms were then exposed to the indicated agents in water for 24 h. Cells that detached from the biofilm during the treatment were enumerated by plating on LB agar. To estimate the number of remaining attached biofilm cells, the discs were placed in 1 ml PBS and the cells were dispersed by using a tissue homogenizer (Brinkman Homogenizer, Westbury, N.Y.). Viable cell numbers were determined by plating on LB agar. […] Furthermore, when gallium-desferrioxamine and gentamicin are used together, viability is reduced by almost 6 logs, leaving only a few viable cells.

The conditions of series [10]: systemic treatment, ischemia and reperfusion; cited from earlier work.
Series [11] concerns pvdA-GFP iron starvation promoter fusion. Description: Iron starvation reporter (pvdA-GFP) fluorescence in PAO1. The class given is cell-based, Pseudomonas aeruginosa. Particulars: 1 mM, 1 h at 37° C. The protocol: To study the effect of DFO-Ga on iron regulation in the cell, a P. aeruginosa PAO1 strain-carrying GFP fused to an iron starvation promoter (pvdA-GFP) was constructed. The promoter is induced under iron limitation. Free living PAO1 carrying pvdA-GFP fusion, i.e., an iron starvation reporter fusion, 10^9 cell/ml in 1% TSB were exposed to […] Ga (1 mM), DFO (1 mM), or DFO-Ga (1 mM) for 1 h at 37° C.

Series [12] relates to Staphylococcus aureus (MRSA strain) biofilm. Description: Spinning disc reactor biofilms of MRSA S. aureus. Type of series: cell-based. Particulars: 1 mM, 24 h. Here is the method: The effect of gallium-desferrioxamine against the drug resistant bacterial was investigated. The efficacy of DFO-Ga against common biofilm pathogens Staphylococcus aureus (MRSA strain) and Escherichia coli was examined. Biofilms were grown using the spinning disc reactor system as above. Spinning disc reactor biofilms with E. coli or MRSA S. aureus were treated for 24 h. The concentration of DFO-Ga in both treatments was (1 mM). In the E. coli treatment, the concentration of Gm was 10 μg/ml and for the combination of DFO-Ga (1 mM) and Gm (10 μg/ml).
As shown FIG. 12B, DFO-Ga was able to reduce the viable Staphylococcus aureus biofilm bacteria by approximately 3 log units.

The test system of series [13] is Pseudomonas aeruginosa. In words: Rabbit cornea infection (keratitis) with P. aeruginosa, topical treatment. Type of series: in vivo. The conditions noted are these: 0.5% gentamicin eye drops.
The conditions of series [14]: topical application, alkali burn; cited from earlier work.

Like-named read-outs stand apart in the source and are kept apart here. Bounds are passed on as bounds.

Consider `CC(=O)N(O)CCCCCNC(=O)CCC(=O)N(O)CCCCCNC(=O)CCC(=O)N(O)CCCCCN` [desferrioxamine], for which the complex formation constant in series [1] is on record as 10^31; in series [2] it was ≤ 10^14; in [3] it was 10^25. For the same compound, the biofilm formation result in series [4] (1 μM) is “does not affect biofilm formation”. Further, in the series on Pseudomonas aeruginosa [5], the “growth inhibition (highest concentration without inhibition)” value was above 1 mM. Moreover, in series [6] (1 mM), the “killing of cells in six-day old biofilm (propidium iodide staining)” value (“killing of cells in six-day old biofilm” below) is on record as “does not appear to kill cells in mushroom-like structures”.

With `CC(=O)N([O-])CCCCCNC(=O)CCC(=O)N([O-])CCCCCNC(=O)CCC(=O)N([O-])CCCCCN.[Ga+3]` [gallium-desferrioxamine], the “killing relative to gentamicin” value in series [7] (1 mM, versus gentamicin 10 μg per ml) is 10-100 times. Further, the log killing in [8] (DFO-Ga 1 mM) came out at 3.02 log. The “decrease in cell counts” value in [9] (1 mM) is 3-4 log. Besides, the “damage to the retina” value in [10] is given as “reduced damage to the retina”. For the same compound, in series [4] (1 μM), the biofilm formation result is given as “effectively blocked”. For the same compound, the “induction in relative fluorescence compared to non-treated controls” value in series [11] was “four”. The “minimal inhibitory concentration (MIC)” value in the series with Pseudomonas aeruginosa [5] stood at 32 µM. In addition, the “reduction of viable Staphylococcus aureus biofilm bacteria” value in series [12] is reported as “approximately 3 log units”. Further, in series [6] (1 μM, flow cell), the “biofilm formation under continuous flow” value was “completely blocks biofilm formation”. The “killing of cells in six-day old biofilm” value in series [6] (1 mM) was “causes death of cells throughout the mushroom-like structures”.

For `[Ga]` [gallium], the biofilm formation result in series [4] (1 μM) was “effectively blocked”. For the same compound, the reduction in fluorescence result in [11] is “two”. In addition, in series [6] (1 mM), the “killing of cells in six-day old biofilm” value was “killing of cells in the outer regions of the biofilm only”.

As for gentamicin, the reduction of viability entry in series [7] (gentamicin 10 μg per ml) is recorded as “three”. The log killing in series [8] (Gm 50 μg/ml) is on record as 0.95 log. For the same compound, in the series on Pseudomonas aeruginosa [13], the scarring entry is “significant scarring persists” and the “time to resolution of the infection” value is recorded as at most 120 h. For the same compound, the “decrease in cell counts” value in series [9] (50 μg/mL) is 2 log. Besides, the biofilm formation entry in [4] (0.1 μg per ml) was “does not affect biofilm formation”. The “killing of cells in six-day old biofilm” value in [6] (50 μg/ml) is given as “killing of cells in the outer regions of the biofilm only”.

With zinc-desferrioxamine, the corneal damage entry in series [14] is recorded as “reduced corneal damage”. In addition, the “damage to the retina” value in series [10] was “reduced damage to the retina”.
